In US20210038668A1, “TRADITIONAL CHINESE MEDICINE COMPOSITION FOR PREVENTING AND/OR TREATING ISCHEMIC REPERFUSION INJURY” (TASLY PHARMACEUTICAL GROUP CO., LTD., priority 2018, published 2021):

Experiments:
Format in all cases: in vivo, C57BL/6 mice
[1] = test system: mice with carotid artery thrombus; experiment: Neurological scoring, 15-score standard, mice; conditions: 24 hours after administration; normal = 15, dead = 0; tPA 10 mg/kg alone; T541 20 mg/kg, T141 12 mg/kg, T582 15 mg/kg each + tPA 10 mg/kg
Description: Neurological scoring was conducted to each group of mice after reperfused for 24 hours based upon scoring standards (15 scores) (Garcia J H et al. Stroke. 1995; 26:627-634.) with slight modification:
Mice capacity of autonomic activity: mice were put into a 25×15 cm cage to record their motion trails within 3 minutes; mice incapable of moving basically were denoted as 0; mice with little activity and not touching any wall of the cage were denoted as 1; mice touching any […] were denoted as 2; mice touching three walls and above were denoted as 3;
Mice limbs symmetry experiment: mice tails were lifted to observe the motion trails of their bodies; mice with completely asymmetric bodies were denoted as 0; mice with almost asymmetrical bodies were denoted as 1; mice with moderately asymmetrical bodies were denoted as 2; mice with almost symmetric bodies were denoted as 3;
Measurement of open field test: free motion of mice was observed; mice without any motion were denoted as 0; mice circling around were denoted as 1; mice tilting to one side to make curvilinear motion were denoted as 2; mice making rectilinear motion were denoted as 3; […]
Mice neurological scoring: a sum of the individual score of the above five experiments is calculated; 15 scores denote normal mice and 0 denote dead mice.

[2] = test system: mice with carotid artery thrombus; experiment: 18-Score Modified Neurological Severity Score, mice
Description: Neurological scoring was conducted to each group of […] after reperfused for 3 hours and 24 hours based upon scoring standards (18 scores), as shown in table 2:
Another scoring method is introduced hereafter. Modified neurological severity scores, mNSS, the score is within the range of 0-18. The scoring method is referring to 1.4 of Example 1.
18-Score Modified Neurological Severity Score (normal mice=0; the higher the score is, the more severe the nerve injury is), and a 15-score standard (normal mice=15, dead mice=0) are applied.

JAM-1 = experiment: Western blotting of JAM-1, cortex of ischemic penumbra; conditions: brain tissue 24 hours after administration, sham = 1.00; tPA 10 mg/kg alone; T541 20 mg/kg + tPA 10 mg/kg
Description: (§1) After reperfused for 24 hours, mice were perfused by normal saline; Western blotting analysis was conducted to the penumbra field of infarcted right cerebral cortex. After perfused, mice brain tissue was taken out; cerebellum and prefrontal lobe were cut off; the brain tissue of right brain close to 1 cm of the central joint of left and right hemispheres along the sagittal view; infarcted penumbra field of the rest tissues was cut off along an 45° angle; the cerebral cortex of the penumbra field was peeled off and preserved at low temperature. Right cerebral cortex was taken and added 1×RIPA lysate and a Cocktail protease inhibitor (1:100, Cell Signaling Technology, US) for full pyrolysis and ultrasonic treatment, and then 17000 g were centrifuged for 30 minutes. Supernatant was taken and added 5×loading buffer by volume, boiled for 20 minutes in boiling water, and then preserved at −80° C. Excessive supernatant was taken out and quantified by a BCA protein quantification liquor (ThermoScientific, US) to measure absorbance value at 560 nm of ELIASA and to calculate the protein concentration according to a standard curve. […] The density of electrophoretic strips was analyzed by an image analysis software Quantityone. […]

brain tissue (edema) = experiment: Brain tissue dry/wet weight ratio; conditions: 24 h after administration; tPA 10 mg/kg alone; T541 20 mg/kg + tPA 10 mg/kg
Description: Brain tissue dry/wet weight ratio: after reperfused for 24 hours, mice were immediately anesthetized; the head was cut off to take brain; left and right brain was respectively weighed (denoted as wet weight). Afterwards, the brain was placed into a 60° C. drying oven for drying for 72 hours, and then weighed (denoted as dry weight). Brain tissue dry/wet weight ratio is calculated by […].

[3] = test system: TUNEL positive cells of cerebral cortex in penumbra; experiment: TUNEL staining of brain tissue; conditions: brain tissue 24 hours after administration; tPA 10 mg/kg alone; T541 20 mg/kg + tPA 10 mg/kg
Description: After reperfused for 24 hours, mice were killed to take brain, so as to observe the degree of cerebral hemorrhage and infarct size, measure the hemoglobin content in brain tissues after bleeding, detect dry/wet weight ratio and Evans Blue leakage of brain tissues, reflect the condition of tissue edema, observe the severity order of apoptosis by TUNEL staining brain tissues, observe the change of blood brain barrier of the blood vessel when injured by making Western blotting analysis on connexins Occludin, JAM-1, ZO-1, VE-cadherin and laminin, namely, the component of basement membrane and by conducting immunofluorescent staining on partial connexins and laminin, detect the change of the structure after cerebral ischemia reperfusion by a scanning electron microscope and IEM, and measure the change on the activity of brain tissues MDA, 8-OHdG, ATP/ADP/AMP and mitochondrial complexes I, II and IV by enzyme-linked immunosorbent assay (ELISA).

ATP5D = ATP5D content in brain tissue; conditions: brain tissue 24 hours after administration, sham = 1.00; tPA 10 mg/kg alone; T541 20 mg/kg + tPA 10 mg/kg
Description: as §1

For “tPA: tissue-type plasminogen activator (tPA) for thrombolysis”, the “Neurological scoring, 15-score standard” value [1] was 5.82 ± 0.52, the “18-Score Modified Neurological Severity Score” value ([2]; 24 hours after administration, normal = 0, tPA 10 mg/kg alone, T541 20 mg/kg, T141 12 mg/kg, T582 15 mg/kg each + tPA 10 mg/kg) was 7.45 ± 0.73 and the “neurological scoring 24 hours after administration (in words)” value ([2]; tPA alone, low/medium/high-dose T541 + tPA) was “may not improve the neurological scoring”. For the same substance, the JAM-1/β-actin (JAM-1) was 0.52 ± 0.04, the “Brain dry/wet weight ratio” value (brain tissue (edema)) was 0.801 ± 0.002 and the “TUNEL positive cell counting” value [3] was 27.14 ± 1.77. The ATP5D (ATP5D) was 0.71 ± 0.05.
